Several values for one entry are separate records, joined by “and”; a condition that tells them apart may be missing. Identical values can stand only once. Activity calls are given as the source filed them.
How the values were obtained:
[1] = target: Sphingosine 1-phosphate receptor 1 (Homo sapiens, UniProt P21453); experiment: Fluorescence-based counterscreen assay for S1P4 agonists: Cell-based dose response high throughput screening assay to identify agonists of the Sphingosine 1-Phosphate Receptor 1 (S1P1). [Related pubchem assays (depositor defined):AID1509, AID1523, AID1801, AID463107, AID463118, AID463119, AID463122, AID463123, AID463129, AID463225, AID504400, AID504460]; assay type: functional
[2] = target: Sphingosine 1-phosphate receptor 2 (Homo sapiens, UniProt O95136); experiment: Dose Response Cell Based Assay for Agonists of the S1P2 Receptor. [Related pubchem assays: 729, 736, 843 ]; assay type: functional
[3] = target: Sphingosine 1-phosphate receptor 4 (Homo sapiens, UniProt O95977); experiment: Fluorescence dose response cell-based high throughput screening assay for agonists of the Sphingosine 1-Phosphate Receptor 4 (S1P4). [Related pubchem assays: 1509 (Primary screen.), 1523 (Confirmation screen in triplicates.)]; assay type: functional
[4] = NIH-3T3 fibroblast cytotoxicity, dose response, cytotoxicity control, cell-based, fluorescence, Alamar Blue, secondary assay (AID 2327); assay type: functional;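 also: NIH-3T3 mouse fibroblasts cultured with fluconazole at 8 µg/mL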
[5] = fluconazole-exposed Candida albicans growth modulators – fluorescence, retest, confirmation (AID 2467); assay type: functional, cell-based
[6] = target: Peroxisome proliferator-activated receptor gamma/Nuclear receptor corepressor 2 (Homo sapiens, UniProt P37231+Q9Y618); assay type: functional
[7] = target: T1, Tyrosine-protein phosphatase non-receptor type 7 (Homo sapiens, UniProt P35236); assay type: functional
T1 sequence (P35236 whole entry): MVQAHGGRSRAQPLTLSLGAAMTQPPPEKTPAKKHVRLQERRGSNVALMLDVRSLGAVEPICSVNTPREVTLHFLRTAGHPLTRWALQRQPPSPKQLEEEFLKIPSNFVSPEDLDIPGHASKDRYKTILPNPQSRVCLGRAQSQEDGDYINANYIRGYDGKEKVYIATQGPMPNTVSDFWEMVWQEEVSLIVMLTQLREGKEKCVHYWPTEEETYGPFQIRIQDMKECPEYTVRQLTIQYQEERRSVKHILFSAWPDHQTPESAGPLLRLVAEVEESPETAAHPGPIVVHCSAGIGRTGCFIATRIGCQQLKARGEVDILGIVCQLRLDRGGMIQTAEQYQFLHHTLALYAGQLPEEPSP

[8] = HEK-293T viability loss after treatment – luminescence, T-cell screen hits, cytotoxicity control for TCR NF-kB inhibitor project, dose response (AID 489026); assay type: functional, cell-based;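 also: cells exposed to compound about 14 hours before the viability readout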
[9] = target: DNA repair and recombination protein RAD54-like (Homo sapiens, UniProt Q92698); experiment: RAD54 Holliday junction migration blockers – biochemical, fluorescence, cherry-picked samples, dose series, confirmation (AID 651657); assay type: functional
[10] = target: Photoreceptor-specific nuclear receptor (Homo sapiens, UniProt Q9Y5X4); assay type: functional;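 also: potency for compounds that break the NR2E3 corepressor complex and count as activators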
[11] = Intein inhibitors as potential Tuberculosis drugs, a cytotoxicity screen. [Related pubchem assays (depositor defined):AID2221, AID2223, AID434968, AID435010, AID449749, AID449750, AID489010]; assay type: functional
[12] = target: T2, Dual specificity protein phosphatase 3 (Homo sapiens, UniProt P51452); experiment: VHR1 phosphatase inhibitors, biochemical (AID 1878)
[13] = viability loss of HPDE-C7K cells – cell-based, fluorescence, HTS, primary screen (AID 431); assay type: functional; settings: Homo sapiens
[14] = cytotoxicity toward MDA-MB-231 breast cancer cells – cell-based, CellTiter-Glo luminescence, cherry-pick, cytotoxicity control for RAD54 inhibitor project, dose response (AID 651692); assay type: functional
[15] = NIH3T3 cell viability loss – ATP luminescence, mouse fibroblasts, counter-screen, dose response (AID 2010); assay type: functional, cell-based;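 also: cells exposed to compound for about 90 hours before reading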
[16] = target: Lysine-specific demethylase 4C (Homo sapiens, UniProt Q9H3R0); experiment: inhibition of JMJD2C H3K9me3 demethylation – biochemical, DELFIA europium, cherry-picked samples, dose response (AID 488835); assay type: functional
[17] = target: Lysine-specific demethylase 4A (Homo sapiens, UniProt O75164); experiment: inhibition of JMJD2A H3K9me3 demethylation – biochemical, DELFIA europium, cherry-picked samples, selectivity assay for GASC-1 inhibitor project, dose response (AID 488840)
[18] = tested on: INS1; experiment: INS-1E survival protection against cytokine death – cell-based, luminescence, retest, dose response (AID 449756); assay type: functional; settings: Rattus norvegicus;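 also: cell death triggered by IL-1 beta plus TNF-alpha plus IFN-gamma mixture; protective hits raise ATP signal compared with cytokine alone wells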
[19] = target: T3, Dual specificity protein phosphatase 6 (Rattus norvegicus, UniProt Q64346); experiment: inhibition of rat DUSP6 enzyme activity – biochemical, in vitro, primary screen (AID 425)
T3 sequence (Q64346 whole entry): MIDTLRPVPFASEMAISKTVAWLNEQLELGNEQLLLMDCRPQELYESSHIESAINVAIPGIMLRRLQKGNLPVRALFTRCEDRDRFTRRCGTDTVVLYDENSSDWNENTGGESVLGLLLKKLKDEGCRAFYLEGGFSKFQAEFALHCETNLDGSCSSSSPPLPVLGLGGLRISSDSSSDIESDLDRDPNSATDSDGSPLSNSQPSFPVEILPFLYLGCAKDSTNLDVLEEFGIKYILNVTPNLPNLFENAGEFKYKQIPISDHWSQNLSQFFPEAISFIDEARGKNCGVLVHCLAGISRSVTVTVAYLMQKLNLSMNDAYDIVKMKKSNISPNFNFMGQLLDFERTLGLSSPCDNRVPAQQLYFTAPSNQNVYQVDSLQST

[20] = microbe, parasite or virus in culture; assay type: functional; settings: Mycobacterium tuberculosis
[21] = reduced cellular PGC1a acetyl-lysine signal – cell-based, cherry-picked samples, dose response (AID 720514); assay type: functional;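 also: potency may reflect raised or lowered acetylation signal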
[22] = target: Ras and Rab interactor 1/Tyrosine-protein kinase ABL1 (Homo sapiens, UniProt P00519+Q13671); assay type: functional;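 also: biochemical TR-FRET dose-response test measuring inhibition of binding between Rin1 and Abl proteins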
[23] = target: T4, Replicative DNA helicase DnaB (Mycobacterium tuberculosis, UniProt P9WMR3); experiment: DnaB intein splicing inhibitors, dose response, biochemical, cell-free fluorescence (AID 449749); assay type: functional
T4 sequence (P9WMR3 whole entry): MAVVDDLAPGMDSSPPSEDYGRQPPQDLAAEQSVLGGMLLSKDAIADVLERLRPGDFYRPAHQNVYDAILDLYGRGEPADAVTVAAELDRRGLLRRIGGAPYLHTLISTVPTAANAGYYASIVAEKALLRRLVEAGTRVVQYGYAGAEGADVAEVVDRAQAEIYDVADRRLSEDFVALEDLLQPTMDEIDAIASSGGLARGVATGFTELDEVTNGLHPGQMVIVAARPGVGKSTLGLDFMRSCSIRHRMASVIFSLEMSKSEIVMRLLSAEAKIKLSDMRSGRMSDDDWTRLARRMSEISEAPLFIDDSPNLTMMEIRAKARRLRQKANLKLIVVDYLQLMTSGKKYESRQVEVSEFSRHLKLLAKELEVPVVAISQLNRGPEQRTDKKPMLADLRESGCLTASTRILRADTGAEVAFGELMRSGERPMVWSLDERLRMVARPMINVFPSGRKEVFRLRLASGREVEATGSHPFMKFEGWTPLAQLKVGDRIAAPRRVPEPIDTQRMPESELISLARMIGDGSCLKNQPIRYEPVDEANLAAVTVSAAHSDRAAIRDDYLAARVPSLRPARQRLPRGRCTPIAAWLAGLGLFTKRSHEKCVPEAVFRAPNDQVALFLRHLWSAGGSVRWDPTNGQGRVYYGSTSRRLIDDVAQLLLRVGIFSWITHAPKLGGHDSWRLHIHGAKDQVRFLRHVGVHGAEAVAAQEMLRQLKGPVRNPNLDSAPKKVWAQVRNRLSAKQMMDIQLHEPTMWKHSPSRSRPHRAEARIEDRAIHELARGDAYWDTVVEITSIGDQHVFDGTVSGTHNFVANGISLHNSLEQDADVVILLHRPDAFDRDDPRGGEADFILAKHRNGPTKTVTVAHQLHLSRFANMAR

[24] = Trypanosoma cruzi growth suppression in host cells – NIH3T3 host cells, beta-gal luminescence, confirmation (AID 2044); assay type: functional, cell-based;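 also: intracellular parasites grown in NIH/3T3 mouse fibroblasts as host cells; luminescent beta-galactosidase reporter signal from transgenic T. cruzi replicating inside host cells; inhibitors lower the luminescence signal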
[25] = HPDE-C7 pancreatic duct cell viability loss – fluorescence, HTS (AID 430); assay type: functional, cell-based; settings: Homo sapiens
[26] = target: T2, Dual specificity protein phosphatase 3; experiment: VHR1 phosphatase inhibitors, primary screen, biochemical, absorbance, uHTS (AID 1654)
[27] = target: Peroxisome proliferator-activated receptor gamma/Nuclear receptor coactivator 2 (Homo sapiens, UniProt P37231); experiment: TR-FRET dose response biochemical High Throughput Screening assay for agonists of the steroid receptor coactivator 2 (SRC-2) recruitment by the peroxisome proliferator-activated receptor gamma (PPAR gamma): non-selective agonists. [Related pubchem assays: 1297, 1032 ]; assay type: functional
[28] = target: Cytochrome P450 3A4 (Homo sapiens, UniProt P08684);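 also: CYP3A4 tested as one member of a cytochrome P450 panel screen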
[29] = target: Peroxisome proliferator-activated receptor gamma/Nuclear receptor coactivator 1 (Homo sapiens, UniProt P37231); experiment: TR-FRET dose response biochemical High Throughput Screening assay for agonists of the steroid receptor coactivator 1 (SRC-1) recruitment by the peroxisome proliferator-activated receptor gamma (PPAR gamma): non-selective agonists. [Related pubchem assays (depositor defined):AID1300, AID1808, AID504735, AID631]; assay type: protein assay
[30] = target: Peroxisome proliferator-activated receptor gamma/Nuclear receptor coactivator 3 (Homo sapiens, UniProt P37231); experiment: TR-FRET dose response biochemical High Throughput Screening assay for agonists of the steroid receptor coactivator 3 (SRC-3) recruitment by the peroxisome proliferator-activated receptor gamma (PPAR gamma): non-selective agonists. [Related pubchem assays: 1301 (Confirmation screen.), 1048 (Primary screen.)]; assay type: functional
[31] = target: T5, Alkaline phosphatase, tissue-nonspecific isozyme (Homo sapiens, UniProt P05186); experiment: TNAP enzyme inhibition by screening hits, dose response, selectivity assay for mouse IAP inhibitor project, biochemical, human TNAP, uHTS hits (AID 488906); assay type: functional
T5 sequence (P05186 whole entry): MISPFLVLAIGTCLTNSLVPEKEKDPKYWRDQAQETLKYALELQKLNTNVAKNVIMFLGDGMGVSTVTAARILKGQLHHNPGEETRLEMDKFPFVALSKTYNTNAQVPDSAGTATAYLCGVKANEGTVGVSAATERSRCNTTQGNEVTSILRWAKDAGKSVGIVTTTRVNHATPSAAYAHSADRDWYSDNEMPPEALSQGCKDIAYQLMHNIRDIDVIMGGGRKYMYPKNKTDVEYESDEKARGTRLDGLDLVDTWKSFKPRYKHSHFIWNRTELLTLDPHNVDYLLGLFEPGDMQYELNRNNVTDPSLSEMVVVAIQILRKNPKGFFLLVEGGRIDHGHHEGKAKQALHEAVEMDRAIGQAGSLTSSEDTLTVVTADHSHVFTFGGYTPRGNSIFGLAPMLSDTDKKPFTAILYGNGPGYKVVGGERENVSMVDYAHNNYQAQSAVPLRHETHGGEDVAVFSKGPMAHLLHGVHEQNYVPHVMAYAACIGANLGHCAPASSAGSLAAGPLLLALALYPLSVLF

[32] = target: Intestinal-type alkaline phosphatase (Homo sapiens, UniProt P09923); experiment: inhibition of human intestinal alkaline phosphatase – biochemical, dose response (AID 488876); assay type: functional
[33] = target: Intestinal-type alkaline phosphatase (Mus musculus, UniProt P24822); experiment: PubChem AID 488785; assay type: functional
[34] = target: Tumor necrosis factor (Homo sapiens, UniProt P01375); experiment: analog potency on TNFa NF-kB signaling – cell-based, revised, SAR follow-up (AID 2337); assay type: functional
[35] = tested on: HEK293; experiment: cells; settings: Homo sapiens;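 also: cells exposed to compound for 14 hours overnight before viability readout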
[36] = target: Nucleotide-binding oligomerization domain-containing protein 1 (Homo sapiens, UniProt Q9Y239); experiment: blockers of NOD1 pathway activity – revised, SAR follow-up (AID 2333); assay type: functional
Nucleotide-binding oligomerization domain-containing protein 1, sequence (Q9Y239 whole entry, the tested form may be a part): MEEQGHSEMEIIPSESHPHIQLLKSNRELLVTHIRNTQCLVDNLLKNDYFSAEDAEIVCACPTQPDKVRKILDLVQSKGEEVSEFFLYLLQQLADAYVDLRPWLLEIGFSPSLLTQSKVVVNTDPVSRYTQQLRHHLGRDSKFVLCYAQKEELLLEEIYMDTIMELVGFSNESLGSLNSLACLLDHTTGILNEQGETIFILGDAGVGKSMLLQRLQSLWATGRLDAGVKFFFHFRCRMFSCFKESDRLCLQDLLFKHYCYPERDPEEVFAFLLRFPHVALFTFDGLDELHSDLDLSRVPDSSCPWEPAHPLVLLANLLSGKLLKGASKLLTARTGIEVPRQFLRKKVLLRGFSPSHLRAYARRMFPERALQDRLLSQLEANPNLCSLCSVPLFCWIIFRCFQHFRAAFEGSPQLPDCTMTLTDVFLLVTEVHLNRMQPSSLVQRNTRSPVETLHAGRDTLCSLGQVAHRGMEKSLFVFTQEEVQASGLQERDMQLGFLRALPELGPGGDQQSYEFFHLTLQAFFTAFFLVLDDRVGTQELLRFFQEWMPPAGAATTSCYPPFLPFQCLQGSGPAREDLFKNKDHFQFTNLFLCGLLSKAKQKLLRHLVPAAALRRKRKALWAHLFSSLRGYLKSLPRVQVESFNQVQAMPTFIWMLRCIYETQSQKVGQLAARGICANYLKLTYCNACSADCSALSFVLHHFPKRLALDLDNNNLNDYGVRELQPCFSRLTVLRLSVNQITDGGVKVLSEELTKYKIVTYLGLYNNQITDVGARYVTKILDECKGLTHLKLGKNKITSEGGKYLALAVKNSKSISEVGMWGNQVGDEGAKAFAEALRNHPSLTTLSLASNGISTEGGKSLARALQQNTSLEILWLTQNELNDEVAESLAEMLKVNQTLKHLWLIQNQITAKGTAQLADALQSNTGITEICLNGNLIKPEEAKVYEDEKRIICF

T2 sequence (P51452 whole entry): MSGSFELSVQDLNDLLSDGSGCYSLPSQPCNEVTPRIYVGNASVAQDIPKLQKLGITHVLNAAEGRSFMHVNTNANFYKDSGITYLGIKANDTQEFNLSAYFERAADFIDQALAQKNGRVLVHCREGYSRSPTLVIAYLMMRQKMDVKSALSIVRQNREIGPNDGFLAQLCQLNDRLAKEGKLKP
Tumor necrosis factor, sequence (P01375 whole entry): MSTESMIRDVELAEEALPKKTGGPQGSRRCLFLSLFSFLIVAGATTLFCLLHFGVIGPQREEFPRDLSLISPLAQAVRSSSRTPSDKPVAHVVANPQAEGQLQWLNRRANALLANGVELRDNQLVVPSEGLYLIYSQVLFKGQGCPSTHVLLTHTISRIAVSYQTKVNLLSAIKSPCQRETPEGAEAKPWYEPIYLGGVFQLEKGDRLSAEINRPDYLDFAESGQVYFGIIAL
Ras and Rab interactor 1/Tyrosine-protein kinase ABL1, sequence (P00519 whole entry): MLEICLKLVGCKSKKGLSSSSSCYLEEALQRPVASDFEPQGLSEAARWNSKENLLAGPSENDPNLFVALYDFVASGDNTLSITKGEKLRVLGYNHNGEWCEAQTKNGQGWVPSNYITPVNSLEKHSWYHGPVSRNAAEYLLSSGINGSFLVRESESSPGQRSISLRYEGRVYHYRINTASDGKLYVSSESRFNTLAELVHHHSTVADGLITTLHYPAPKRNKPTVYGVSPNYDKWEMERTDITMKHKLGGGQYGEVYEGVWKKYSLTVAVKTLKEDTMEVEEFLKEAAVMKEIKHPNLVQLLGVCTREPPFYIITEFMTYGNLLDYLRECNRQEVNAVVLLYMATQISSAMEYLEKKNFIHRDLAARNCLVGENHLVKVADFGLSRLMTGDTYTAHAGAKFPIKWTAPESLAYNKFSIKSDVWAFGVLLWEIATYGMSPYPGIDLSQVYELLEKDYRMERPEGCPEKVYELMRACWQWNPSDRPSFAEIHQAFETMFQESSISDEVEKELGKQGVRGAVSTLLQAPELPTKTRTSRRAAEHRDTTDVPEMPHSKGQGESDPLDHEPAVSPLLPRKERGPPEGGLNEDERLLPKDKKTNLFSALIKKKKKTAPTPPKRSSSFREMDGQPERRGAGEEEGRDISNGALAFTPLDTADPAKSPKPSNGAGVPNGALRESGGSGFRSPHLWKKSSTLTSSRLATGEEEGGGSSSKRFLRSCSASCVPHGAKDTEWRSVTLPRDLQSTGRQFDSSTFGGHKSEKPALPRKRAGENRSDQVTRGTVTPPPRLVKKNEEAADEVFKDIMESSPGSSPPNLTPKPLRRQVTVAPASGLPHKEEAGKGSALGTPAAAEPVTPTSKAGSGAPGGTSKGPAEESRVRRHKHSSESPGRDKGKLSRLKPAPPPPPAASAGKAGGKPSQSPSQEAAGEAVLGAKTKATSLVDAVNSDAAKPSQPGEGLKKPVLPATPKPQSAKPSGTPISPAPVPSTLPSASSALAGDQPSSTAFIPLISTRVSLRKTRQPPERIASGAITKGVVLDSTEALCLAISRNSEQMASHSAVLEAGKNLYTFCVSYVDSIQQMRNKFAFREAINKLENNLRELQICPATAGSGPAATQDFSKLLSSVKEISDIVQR
Ras and Rab interactor 1/Tyrosine-protein kinase ABL1, sequence (Q13671 whole entry): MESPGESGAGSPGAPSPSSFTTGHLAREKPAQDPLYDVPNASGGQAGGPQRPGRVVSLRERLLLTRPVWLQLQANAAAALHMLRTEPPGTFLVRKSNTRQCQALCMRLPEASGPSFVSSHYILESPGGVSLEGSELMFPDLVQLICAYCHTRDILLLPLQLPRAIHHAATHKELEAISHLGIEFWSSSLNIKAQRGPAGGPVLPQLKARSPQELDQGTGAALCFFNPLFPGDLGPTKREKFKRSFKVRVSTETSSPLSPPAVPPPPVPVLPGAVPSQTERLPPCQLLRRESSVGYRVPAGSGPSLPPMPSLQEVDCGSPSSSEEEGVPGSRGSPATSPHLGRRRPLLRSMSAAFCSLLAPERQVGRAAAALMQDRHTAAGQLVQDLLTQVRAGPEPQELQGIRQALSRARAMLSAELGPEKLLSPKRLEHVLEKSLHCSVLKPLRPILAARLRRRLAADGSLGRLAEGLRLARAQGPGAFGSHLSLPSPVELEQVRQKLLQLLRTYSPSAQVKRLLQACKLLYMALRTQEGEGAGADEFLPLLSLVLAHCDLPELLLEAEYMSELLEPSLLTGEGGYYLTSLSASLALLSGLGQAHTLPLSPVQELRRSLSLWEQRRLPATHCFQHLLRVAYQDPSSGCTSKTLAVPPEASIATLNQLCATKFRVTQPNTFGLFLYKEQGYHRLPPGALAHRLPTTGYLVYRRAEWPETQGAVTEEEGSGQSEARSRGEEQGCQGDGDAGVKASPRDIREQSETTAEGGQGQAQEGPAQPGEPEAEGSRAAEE
Sphingosine 1-phosphate receptor 2, sequence (O95136 whole entry): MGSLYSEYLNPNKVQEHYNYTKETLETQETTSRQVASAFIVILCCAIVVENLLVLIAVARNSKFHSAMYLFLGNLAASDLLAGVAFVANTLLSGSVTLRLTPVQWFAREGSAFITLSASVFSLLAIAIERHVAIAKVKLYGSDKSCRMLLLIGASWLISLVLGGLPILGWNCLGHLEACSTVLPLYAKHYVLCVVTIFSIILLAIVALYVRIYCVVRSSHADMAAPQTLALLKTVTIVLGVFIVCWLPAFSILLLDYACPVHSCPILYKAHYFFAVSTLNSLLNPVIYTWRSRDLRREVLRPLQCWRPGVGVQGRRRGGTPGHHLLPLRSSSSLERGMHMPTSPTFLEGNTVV
Intestinal-type alkaline phosphatase (Mus musculus, UniProt P24822), sequence (P24822 whole entry): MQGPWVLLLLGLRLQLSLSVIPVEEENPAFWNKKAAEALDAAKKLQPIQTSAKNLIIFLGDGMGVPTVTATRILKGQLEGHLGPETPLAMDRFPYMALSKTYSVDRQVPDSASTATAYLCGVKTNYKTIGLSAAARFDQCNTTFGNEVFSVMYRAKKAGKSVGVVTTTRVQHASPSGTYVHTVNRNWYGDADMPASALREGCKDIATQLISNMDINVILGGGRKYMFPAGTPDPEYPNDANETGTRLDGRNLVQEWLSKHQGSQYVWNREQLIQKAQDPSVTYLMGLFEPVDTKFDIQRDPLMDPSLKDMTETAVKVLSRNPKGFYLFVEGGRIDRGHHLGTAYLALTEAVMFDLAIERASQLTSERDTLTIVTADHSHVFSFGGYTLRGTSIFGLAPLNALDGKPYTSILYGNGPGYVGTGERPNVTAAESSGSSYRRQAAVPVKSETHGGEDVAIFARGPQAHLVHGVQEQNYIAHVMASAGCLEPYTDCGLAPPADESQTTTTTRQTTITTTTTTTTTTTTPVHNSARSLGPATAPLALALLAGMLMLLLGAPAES
Photoreceptor-specific nuclear receptor, sequence (Q9Y5X4 whole entry): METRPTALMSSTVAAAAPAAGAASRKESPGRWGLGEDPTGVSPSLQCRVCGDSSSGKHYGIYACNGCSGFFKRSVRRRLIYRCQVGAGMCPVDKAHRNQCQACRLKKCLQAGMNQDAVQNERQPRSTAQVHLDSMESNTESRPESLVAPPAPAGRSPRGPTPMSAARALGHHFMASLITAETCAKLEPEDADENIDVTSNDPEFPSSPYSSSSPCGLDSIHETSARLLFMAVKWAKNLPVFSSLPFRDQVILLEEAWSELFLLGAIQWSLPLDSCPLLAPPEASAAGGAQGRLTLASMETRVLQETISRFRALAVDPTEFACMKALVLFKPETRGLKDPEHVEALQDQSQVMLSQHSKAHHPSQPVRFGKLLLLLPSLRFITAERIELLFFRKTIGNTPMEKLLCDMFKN
Sphingosine 1-phosphate receptor 4, sequence (O95977 whole entry): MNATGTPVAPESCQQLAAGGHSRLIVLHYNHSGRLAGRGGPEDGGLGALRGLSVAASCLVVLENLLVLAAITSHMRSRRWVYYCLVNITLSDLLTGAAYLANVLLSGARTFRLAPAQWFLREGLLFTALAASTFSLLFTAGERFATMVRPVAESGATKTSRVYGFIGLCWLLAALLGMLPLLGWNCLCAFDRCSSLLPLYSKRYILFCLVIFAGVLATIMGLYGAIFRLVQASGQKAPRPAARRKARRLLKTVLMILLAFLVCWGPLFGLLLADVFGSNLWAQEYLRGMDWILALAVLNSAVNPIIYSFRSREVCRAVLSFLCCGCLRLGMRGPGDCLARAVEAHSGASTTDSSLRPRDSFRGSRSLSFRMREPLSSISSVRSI

## Cc1ccccc1-n1c(=O)c(C#N)cc2c(=O)n3ccccc3nc21
[1]
  EC50: 7880 nM (active)
[2]
  EC50: 7450 nM (active)
[3]
  EC50: 2580 nM (active)
[4]
  EC50: > 160000 nM (inactive)
[5]
  EC50: > 38000 nM (not active)

## Cn1ncnc2c(=O)n(C)c(=O)nc1-2
[6]
  IC50: > 39800 nM (not active)
[7]
  IC50: < 1240 nM (active)
[8]
  IC50: 2000 nM (active)
[9]
  AC50: 1100 nM (active)
[10]
  IC50: > 39800 nM (not active)
[11]
  CC50: 10300 nM (active)
[12]
  IC50: 1360 nM (active)
[13]
  EC50: 640 nM (active)
[14]
  AC50: 1800 nM (active)
[15]
  EC50: 850 nM (active)
[16]
  AC50: 541 nM (active)
[17]
  AC50: 2540 nM (active)
[18]
  AC50: 627 nM (active)
[19]
  IC50: 2320 nM (active)
[20]
  CC50: 7980 nM (active)
[21]
  AC50: 463 nM (active)
[22]
  IC50: 323 nM (active)
[23]
  AC50: 57 nM (active)
[24]
  EC50: 492 nM (active)
[25]
  EC50: 470 nM (active)
[26]
  IC50: < 980 nM (inactive)

## CCOC(=O)CSc1cc(=O)n(C)c2cc(Cl)ccc12
[27]
  EC50: > 79400 nM (not active)
[28]
  AC50: 22400 nM (inconclusive)
[29]
  EC50: > 79400 nM (inactive)
[30]
  EC50: > 79400 nM (not active)

## COC(=O)c1ccc(NS(=O)(=O)c2ccc3[nH]c(=O)oc3c2)cc1
[31]
  IC50: > 100000 nM (inactive)
[32]
  IC50: > 100000 nM (inactive)
[33]
  IC50: 2600 nM (active)

## COC(=O)CC1=NN(c2nc3ccccc3s2)C(=O)/C1=C(/C)Nc1ccc(OC)cc1
[34]
  IC50: < 39.1 nM (active) and 4.12 µM (active)
[35]
  IC50: > 20000 nM (inactive)
[36]
  IC50: 260 nM (active) and 2.38 µM (active)

Reference: ChEMBL document CHEMBL1201862, “PubChem BioAssay data set” (2004)
